Among the data in patent US20240277683A1, “COMPOUNDS” (CTXT PTY LTD, priority 2018, published 2024) are IC50 values, retold here.

Where two headings read alike, the source gives them in different places.

Format in all cases: cell-based
Holding throughout (conditions): Homo sapiens

In experiment [1] the test system is histone H2A.Z Lysine 7 acetylation marker in U2OS cells. The experiment is described as follows: H2A.Z Lysine 7 Acetylation Biomarker Assay. As for the experimental part:
Compounds may be tested for their ability to inhibit the histone H2A.Z Lysine 7 acetylation marker in the following assay:
(§1) The cell line U2OS was seeded at a density of 3,000 cells per well in 384-well optical quality tissue culture plates in RPMI medium supplemented with 10% foetal bovine serum and 10 mM Hepes. The cells were allowed to adhere for 24 hours under standard culture conditions (37 degree Celsius, 5% CO2). At the end of this period the cells were washed with serum free medium. […] Plates were washed and read on a PerkinElmer Opera HCS high content imaging platform.

Experiment [2] relates to acetylation of the histone H3 Lysine 14 marker in U2OS cells. Briefly: Histone H3 Lysine 14 Acetylation Biomarker Assay. As for the experimental part: Compounds may be tested for their ability to inhibit acetylation of the histone H3 Lysine 14 marker in the following assay:
as §1

Experiment [3] has as its system acetylation of the histone H3K23 marker in U2OS cells. The experiment is described as follows: Histone H3 Lysine 23 Acetylation Biomarker Assay. The procedure:
Compounds may be tested for their ability to inhibit acetylation of the histone H3K23 marker in the following assay:
The cell line U2OS was seeded at a density of 9,000 cells per well in 96 well optical quality tissue culture plates in RPMI medium and 10% foetal bovine serum, and allowed to adhere for 24 hours under standard culture conditions (37 degree Celsius, 5% CO2). At the end of this period the medium was aspirated. […] After incubation for 24 hours, the cells were fixed with 3.7% formaldehyde in PBS for 20 minutes at room temperature, washed (5×5 minutes) with phosphate buffer saline containing 0.1% Tween 20 and blocked with Odyssey blocking buffer (LI-COR, Lincoln, NE) containing 0.1% TritonX100. Anti-H3K23ac specific antibody (Abcam ab177275) in Odyssey blocking buffer containing 0.1% Tween 20 was added and incubated for 16 hours at 4 degree Celsius. […] Plates were washed as previously and read on a PerkinElmer Phenix high content imaging platform.

Setting [4] is: H2A.ZK7ac, U2OS cells, serum free medium, 24 hours, read-out: IC50.
Setting [5] is: H3K14ac, U2OS cells, serum free medium, 24 hours, read-out: IC50.
Where [6] appears, read: H3K23ac, U2OS cells, 24 hours, read-out: IC50.

As usually defined, the IC50 is the midpoint of a concentration-inhibition curve. For the molecule `COc1ccccc1-c1cc(NS(=O)(=O)c2c(OC)cccc2OC)no1` [Example 56, 2,6-Dimethoxy-N-(5-(2-methoxyphenyl)isoxazol-3-yl)benzenesulfonamide], the IC50 in experiment [1] (U2OS, 24 h) came to 24100 nM; in experiment [2] (U2OS, 24 h), 2640 nM; in experiment [3] (U2OS, 24 h), 2070 nM.

For `COc1ccc(-c2ccn[nH]2)cc1-c1cc(NS(=O)(=O)c2c(OC)cccc2OC)no1` [Example 72, 2,6-Dimethoxy-N-(5-(2-methoxy-5-(1H-pyrazol-5-yl)phenyl)isoxazol-3-yl)benzenesulfonamide], the half-maximal inhibitory concentration (IC50) in experiment [1] (U2OS, 24 h) is 4730 nM; in experiment [2] (U2OS, 24 h), 575 nM; in experiment [3] (U2OS, 24 h), 204 nM.

Regarding `COc1ccc(-n2cccn2)cc1-c1cc(NS(=O)(=O)c2c(OC)cccc2OC)no1` [Example 105, 2,6-Dimethoxy-N-(5-(2-methoxy-5-(1H-pyrazol-1-yl)phenyl)isoxazol-3-yl)benzenesulfonamide], the IC50 came to 17100 nM in experiment [1] (setting [4]), 3000 nM in experiment [2] (setting [5]) and 173 nM in experiment [3] (setting [6]).

`COc1ccccc1-c1cc(NS(=O)(=O)c2c(OC)cc(-c3ccccc3)cc2OC)no1` [Example 11, 3,5-Dimethoxy-N-(5-(2-methoxyphenyl)isoxazol-3-yl)-[1,1′-biphenyl]-4-sulfonamide]: the IC50 is 5320 nM in experiment [1] (U2OS, 24 h) and 2740 nM in experiment [2] (U2OS, 24 h).

As to `COc1ccc(OC)c(-c2cc(NS(=O)(=O)c3c(OC)cc(-c4ccccc4)cc3OC)no2)c1` [Example 6, N-(5-(2,5-Dimethoxyphenyl)isoxazol-3-yl)-3,5-dimethoxy-[1,1′-biphenyl]-4-sulfonamide], the IC50 in experiment [1] (U2OS, 24 h) is 1350 nM; in experiment [2] (U2OS, 24 h) it was 526 nM; in experiment [3] (U2OS, 24 h) it was 471 nM.

With `CCc1ccc(OC)c(S(=O)(=O)Nc2cc(-c3ccccc3OC)on2)c1` [Example 58, 5-Ethyl-2-methoxy-N-(5-(2-methoxyphenyl)isoxazol-3-yl)benzenesulfonamide], the IC50 in experiment [1] (U2OS, 24 h) is more than 40000 nM; in experiment [2] (U2OS, 24 h), 22400 nM.

In the case of `COc1ccccc1-c1cc(NS(=O)(=O)Cc2ccccc2)no1` [Example 2, N-(5-(2-Methoxyphenyl)isoxazol-3-yl)-1-phenylmethanesulfonamide], in experiment [3] (U2OS, 24 h), the IC50 was more than 10000 nM.

As for `COc1ccc(Cl)cc1-c1cc(NS(=O)(=O)c2c(OC)cccc2OC)no1` [Example 15, N-(5-(5-Chloro-2-methoxyphenyl)isoxazol-3-yl)-2,6-dimethoxybenzenesulfonamide], the IC50 in experiment [1] (setting [4]) turned out to be 12100 nM; in experiment [2] (setting [5]), 450 nM; in experiment [3] (setting [6]) it was 141 nM.

For the molecule `COCc1ccc(OC)c(-c2cc(NS(=O)(=O)c3c(OC)cccc3OC)no2)c1` [Example 73, 2,6-Dimethoxy-N-(5-(2-methoxy-5-(methoxymethyl)phenyl)isoxazol-3-yl)benzenesulfonamide], the IC50 in experiment [1] (U2OS, 24 h) was 35200 nM; in experiment [2] (U2OS, 24 h), 1290 nM; in experiment [3] (U2OS, 24 h) it was 17.1 nM.

On to `COCc1ccc(OC)c(-c2cc(NS(=O)(=O)Cc3ccccc3)no2)c1` [Example 112, N-(5-(2-Methoxy-5-(methoxymethyl)phenyl)isoxazol-3-yl)-1-phenylmethanesulfonamide], for which the IC50 in experiment [3] (setting [6]) was determined as 187 nM.

`COc1ccc(C2CC2)cc1-c1cc(NS(=O)(=O)c2c(OC)cccc2OC)no1` [Example 8, N-(5-(5-Cyclopropyl-2-methoxyphenyl)isoxazol-3-yl)-2,6-dimethoxybenzenesulfonamide]: the IC50 came out at 3270 nM in experiment [1] (U2OS, 24 h); 345 nM in experiment [2] (U2OS, 24 h); 51.8 nM in experiment [3] (U2OS, 24 h).

On to `COc1cc(Cl)ccc1-c1cc(NS(=O)(=O)c2c(OC)cccc2OC)no1` [Example 21, N-(5-(4-Chloro-2-methoxyphenyl)isoxazol-3-yl)-2,6-dimethoxybenzenesulfonamide], for which the IC50 in experiment [1] (setting [4]) and in experiment [2] (setting [5]) was more than 40000 nM in each case.

As for `COc1cccc(OC)c1S(=O)(=O)Nc1cc(-c2ccccc2OC(F)(F)F)on1` [Example 22, 2,6-Dimethoxy-N-(5-(2-(trifluoromethoxy)phenyl)isoxazol-3-yl)benzenesulfonamide], the IC50 in experiment [1] (U2OS, 24 h) is 4770 nM; in experiment [2] (U2OS, 24 h), 762 nM; in experiment [3] (U2OS, 24 h), 2130 nM.

As to `COc1ccccc1-c1cc(NS(=O)(=O)NC2CCCCC2)no1` [Example 117, N-Cyclohexyl((5-(2-methoxyphenyl)-1,2-oxazol-3-yl)amino)sulfonamide], 5560 nM corresponded to half-maximal inhibition in experiment [3] (U2OS, 24 h) (IC50).

Take `CCc1ccc(OC)cc1-c1cc(NS(=O)(=O)c2c(OC)cccc2OC)no1` [Example 23, N-(5-(2-Ethyl-5-methoxyphenyl)isoxazol-3-yl)-2,6-dimethoxybenzenesulfonamide]: the IC50 was 9990 nM in experiment [1] (setting [4]), 216 nM in experiment [2] (setting [5]) and 178 nM in experiment [3] (setting [6]).

On to `COc1ccccc1-c1cc(NS(=O)(=O)c2ccccc2)no1` [Example 3, N-(5-(2-Methoxyphenyl)isoxazol-3-yl)benzenesulfonamide], for which the IC50 in experiment [1] (U2OS, 24 h) was more than 40000 nM; in experiment [2] (U2OS, 24 h) it was 39200 nM; in experiment [3] (U2OS, 24 h) it was more than 10000 nM.

`COc1ccc(-c2ccnn2C)cc1-c1cc(NS(=O)(=O)c2c(OC)cccc2OC)no1` [Example 119, 2,6-Dimethoxy-N-(5-(2-methoxy-5-(1-methyl-1H-pyrazol-5-yl)phenyl)isoxazol-3-yl)benzenesulfonamide]: the IC50 in experiment [3] (setting [6]) is 634 nM.

For the molecule `CCOc1ccccc1-c1cc(NS(=O)(=O)c2c(OC)cccc2OC)no1` [Example 5, N-(5-(2-Ethoxyphenyl)isoxazol-3-yl)-2,6-dimethoxybenzenesulfonamide], the IC50 in experiment [1] (U2OS, 24 h) was determined as 5640 nM; in experiment [2] (U2OS, 24 h), 2330 nM; in experiment [3] (U2OS, 24 h), 895 nM.

As for `COc1ccc(OC(C)C)c(-c2cc(NS(=O)(=O)c3c(OC)cccc3OC)no2)c1` [Example 14, N-(5-(2-Isopropoxy-5-methoxyphenyl)isoxazol-3-yl)-2,6-dimethoxybenzenesulfonamide], the IC50 in experiment [1] (setting [4]) is 2500 nM; in experiment [2] (setting [5]), 220 nM; in experiment [3] (setting [6]) it was 132 nM.

As to `COc1ccccc1-c1nnc(NS(=O)(=O)c2c(OC)cccc2OC)s1` [Example 17, 2,6-Dimethoxy-N-(5-(2-methoxyphenyl)-1,3,4-thiadiazol-2-yl)benzenesulfonamide], the IC50 in experiment [1] (setting [4]) came to 29300 nM; in experiment [2] (setting [5]), 3200 nM; in experiment [3] (setting [6]), 2260 nM.

Consider `COc1ccc(S(=O)(=O)Nc2cc(-c3ccccc3OC)on2)c(OC)c1` [Example 57, 2,4-Dimethoxy-N-(5-(2-methoxyphenyl)isoxazol-3-yl)benzenesulfonamide], for which, in experiment [2] (U2OS, 24 h), the IC50 is more than 40000 nM.

For `COc1ccccc1-c1cc(NS(=O)(=O)c2c(OC)ccc(-c3ccccc3)c2OC)no1` [Example 10, 2,4-Dimethoxy-N-(5-(2-methoxyphenyl)isoxazol-3-yl)-[1,1′-biphenyl]-3-sulfonamide], the IC50 in experiment [1] (U2OS, 24 h) is more than 40000 nM; in experiment [2] (U2OS, 24 h), 4140 nM.

`COc1ccccc1-c1cc(NS(=O)(=O)CCc2ccccc2)no1` [Example 4, N-(5-(2-Methoxyphenyl)isoxazol-3-yl)-2-phenylethane-1-sulfonamide]: the IC50 in experiment [3] (U2OS, 24 h) was more than 10000 nM.

Take `COc1cccc(OC)c1S(=O)(=O)Nc1nnc(-c2cc(Cl)ccc2OC(C)C)s1` [Example 111, N-(5-(5-Chloro-2-isopropoxyphenyl)-1,3,4-thiadiazol-2-yl)-2,6-dimethoxybenzenesulfonamide]: in experiment [3] (setting [6]), the 50% inhibitory concentration (IC50) amounted to 474 nM.

As for `COc1ccc(CC2CCCCC2)cc1-c1cc(NS(=O)(=O)c2c(OC)cccc2OC)no1` [Example 19, N-(5-(5-(Cyclohexylmethyl)-2-methoxyphenyl)isoxazol-3-yl)-2,6-dimethoxybenzenesulfonamide], the IC50 in experiment [1] (setting [4]) is 5420 nM; in experiment [3] (setting [6]), more than 10000 nM.

Turning to `COc1ccccc1-c1cc(NS(=O)(=O)C2CCCCC2)no1` [Example 102, N-(5-(2-Methoxyphenyl)isoxazol-3-yl)cyclohexanesulfonamide], the IC50 in experiment [1] (setting [4]) was more than 40000 nM; in experiment [2] (setting [5]) it was 25600 nM.

With `COc1ccc(OC)c(-c2nnc(NS(=O)(=O)c3c(OC)cccc3OC)s2)c1` [Example 70, N-(5-(2,5-Dimethoxyphenyl)-1,3,4-thiadiazol-2-yl)-2,6-dimethoxybenzenesulfonamide], in experiment [3] (setting [6]), the IC50 worked out at 275 nM.

`CCc1ccc(OC)c(S(=O)(=O)Nc2cc(-c3ccc(OC)cc3OC)on2)c1` [Example 12, N-(5-(2,4-Dimethoxyphenyl)isoxazol-3-yl)-5-ethyl-2-methoxybenzenesulfonamide]: the concentration for half-maximal inhibition (IC50) in experiment [1] (U2OS, 24 h) was more than 40000 nM; in experiment [2] (U2OS, 24 h), more than 40000 nM.

With `COCc1ccc(OC)cc1-c1cc(NS(=O)(=O)c2c(OC)cccc2OC)no1` [Example 71, 2,6-Dimethoxy-N-(5-(5-methoxy-2-(methoxymethyl)phenyl)isoxazol-3-yl)benzenesulfonamide], in experiment [3] (setting [6]), the 50% inhibitory concentration (IC50) was determined as 69.3 nM.

The molecule `CCc1ccc(OC)c(S(=O)(=O)Nc2cc(-c3cccc(OC)c3)on2)c1` [Example 13, 5-Ethyl-2-methoxy-N-(5-(3-methoxyphenyl)isoxazol-3-yl)benzenesulfonamide] had an IC50 in experiment [2] (U2OS, 24 h) of 22400 nM.
